Experiments:
Assay type in all cases: functional
[1] = test system: SMA-560; assay: Induction of apoptosis in mouse SMA-560 cells assessed as early apoptotic cells incubated for 72 hrs by Annexin V-FITC/PI staining based flow cytometric analysis (reference value: 0.0056%)
[2] = test system: SMA-560; assay: Induction of apoptosis in mouse SMA-560 cells assessed as live cells incubated for 72 hrs by Annexin V-FITC/PI staining based flow cytometric analysis (reference value: 84.6%)
[3] = test system: SMA-560; assay: Induction of apoptosis in mouse SMA-560 cells assessed as late apoptotic cells incubated for 72 hrs by Annexin V-FITC/PI staining based flow cytometric analysis (reference value: 1.83%)

SMILES: CN[C@@H]1C[C@H]2O[C@@](C)([C@@H]1OC)n1c3ccccc3c3c4c(c5c6ccccc6n2c5c31)C(=O)NC4 [STAUROSPORINE]
- Activity [1]: 0%
- Activity [2]: 1.29%
- Activity [3]: 87.7%
